Experimental findings from ChEMBL document CHEMBL2034943, “Potentiating Metronidazole Scaffold against Resistant Trichomonas: Design, Synthesis, Biology and 3D-QSAR Analysis” (ACS Med Chem Lett, 2012) are described below.

≈ marks a conversion by molar mass, not a printed value. Where only a bound is given, the exact number is not on record here.

For assay [1], the system named is Trichomonas vaginalis. As to the kind of experiment: Antitrichomonas activity against metronidazole-susceptible Trichomonas vaginalis. The assay is classed as functional.
Assay [2] has as its system Trichomonas vaginalis. As to the kind of experiment: Antitrichomonas activity against metronidazole-resistant Trichomonas vaginalis ATCC 50143. The assay is classed as functional.
The test system of another assay is Spermatozoa. As to the kind of experiment: Spermicidal activity against human spermatozoa assessed as immobilization measured for 60 seconds. In kind it is functional. Also on record: concentration or dose not given beside the values.
The next assay deals with HeLa. In words: Cytotoxicity against human HeLa cells. The assay is classed as cell-based.
The nature of assay [3]: Toxicity against Lactobacillus jensenii ATCC 25258.
Assay [4] deals with Trichomonas vaginalis. As to the kind of experiment: Ratio of MIC for metronidazole to compound for metronidazole-susceptible Trichomonas vaginalis. In kind it is functional.
The test system of assay [5] is Trichomonas vaginalis. As to the kind of experiment: Ratio of MIC for metronidazole to compound for metronidazole-resistant Trichomonas vaginalis ATCC 50143. In kind it is functional.

A word on the MIC: it is the smallest concentration in the dilution series that meets the test's criterion for growth inhibition. The term IC50 denotes the concentration at which inhibition is half-maximal. As for `CCOC(=O)C1CCN(C(=S)SCCn2c([N+](=O)[O-])cnc2C)CC1`, the MIC with Trichomonas vaginalis [1] amounted to 3.24 µM (≈ 1.25 µg/mL); in the assay on Trichomonas vaginalis [2], 64.8 µM (≈ 25 µg/mL). Besides, in the assay with Spermatozoa, the Activity was 100%. Also, the IC50 in the assay on HeLa was 510 µg/mL (≈ 1320 µM); in assay [3], greater than 1000 µg/mL.

For the molecule `Cc1ncc([N+](=O)[O-])n1CCSC(=S)N1CCC(Cc2ccccc2)CC1`, the MIC with Trichomonas vaginalis [1] was 12.4 µM (≈ 5.02 µg/mL); against Trichomonas vaginalis [2] it was 49.5 µM (≈ 20 µg/mL). Moreover, the Activity with Spermatozoa was determined as 100%. In addition, the IC50 (in the assay with HeLa; in assay [3]) was greater than 1000 µg/mL in each case.

In the case of `Cc1ncc([N+](=O)[O-])n1CCSC(=S)N1CCCC(C)C1` (stereo not drawn), the values for the MIC against Trichomonas vaginalis [1] and in the assay with Trichomonas vaginalis [2] were 1.9 µM (≈ 0.624 µg/mL) and 15.2 µM (≈ 4.99 µg/mL), respectively. Besides, the Activity in the assay on Spermatozoa worked out at 100%. The IC50 in the assay on HeLa is 170 µg/mL (≈ 518 µM); in assay [3], greater than 1000 µg/mL. Further, the results for the Ratio in the assay on Trichomonas vaginalis [4] and in the assay on Trichomonas vaginalis [5] were 3 and 10, respectively.

For the molecule `Cc1ncc([N+](=O)[O-])n1CCSC(=S)N1CCC(OC(=O)CN2CCCCC2)CC1`, the values for the MIC against Trichomonas vaginalis [1] and in the assay with Trichomonas vaginalis [2] were 1.37 µM (≈ 0.624 µg/mL) and 54.9 µM (≈ 25 µg/mL), respectively. In addition, the Activity in the assay with Spermatozoa is on record as less than 100%. The IC50 in the assay with HeLa is 760 µg/mL (≈ 1670 µM); in assay [3] it was greater than 1000 µg/mL.

For the molecule `Cc1ncc([N+](=O)[O-])n1CCSC(=S)N1CCC(OC(=O)C(Cl)Cl)CC1`, the MIC was 1.53 µM (≈ 0.675 µg/mL) in the assay on Trichomonas vaginalis [1] and 56.7 µM (≈ 25 µg/mL) against Trichomonas vaginalis [2]. In addition, the Activity in the assay on Spermatozoa is given as 100%. Also, the results for the IC50 (in the assay on HeLa; in assay [3]) were greater than 1000 µg/mL and 740 µg/mL (≈ 1680 µM), respectively.

For `Cc1ncc([N+](=O)[O-])n1CCSC(=S)N1CCCCC1C` (stereo not drawn), the MIC amounted to 1.9 µM (≈ 0.624 µg/mL) with Trichomonas vaginalis [1] and 15.2 µM (≈ 4.99 µg/mL) in the assay on Trichomonas vaginalis [2]. In addition, in the assay on Spermatozoa, the Activity is 100%. Moreover, the IC50 with HeLa was 170 µg/mL (≈ 518 µM); in assay [3], greater than 1000 µg/mL. The figures for the Ratio with Trichomonas vaginalis [4] and in the assay with Trichomonas vaginalis [5] were 3 and 10, respectively.

In the case of `Cc1ncc([N+](=O)[O-])n1CCSC(=S)N1CCC(OC(=O)CCl)CC1`, the figures for the MIC with Trichomonas vaginalis [1] and in the assay on Trichomonas vaginalis [2] were 49.3 µM (≈ 20.1 µg/mL) and 246 µM (≈ 100 µg/mL), respectively. In the assay with Spermatozoa, the Activity worked out at 100%. The figures for the IC50 (with HeLa; in assay [3]) were 930 µg/mL (≈ 2290 µM) and 590 µg/mL (≈ 1450 µM), respectively.

For `CCCCCCCCCc1ccc(OCCOCCOCCOCCOCCOCCOCCOCCOCCO)cc1` [NONOXYNOL 9], the Activity with Spermatozoa was 100%. The IC50 (in the assay with HeLa; in assay [3]) was 33 µg/mL (≈ 53.5 µM) each time.

`Cc1ncc([N+](=O)[O-])n1CCSC(=S)N1CCC(=O)CC1`: the results for the MIC in the assay with Trichomonas vaginalis [1] and with Trichomonas vaginalis [2] were 1.89 µM (≈ 0.621 µg/mL) and 30.5 µM (≈ 10 µg/mL), respectively. Moreover, the Activity in the assay with Spermatozoa is less than 100%. For the same molecule, the IC50 in the assay on HeLa is greater than 1000 µg/mL; in assay [3], 380 µg/mL (≈ 1160 µM).

Consider `Cc1ncc([N+](=O)[O-])n1CCSC(=S)N1CCC(OC(=O)CSC(=S)N2CCCCC2)CC1`, for which the MIC came out at 2.35 µM (≈ 1.25 µg/mL) in the assay with Trichomonas vaginalis [1] and 37.7 µM (≈ 20 µg/mL) with Trichomonas vaginalis [2]. Moreover, the Activity with Spermatozoa was less than 100%. In addition, the values for the IC50 (in the assay on HeLa; in assay [3]) were 980 µg/mL (≈ 1840 µM) and greater than 1000 µg/mL, respectively.

On to `Cc1ncc([N+](=O)[O-])n1CCSC(=S)N1CCC(OS(C)(=O)=O)CC1`, for which the results for the MIC against Trichomonas vaginalis [1] and against Trichomonas vaginalis [2] were 12.4 µM (≈ 5.07 µg/mL) and 61.3 µM (≈ 25 µg/mL), respectively. Moreover, the Activity in the assay on Spermatozoa is 100%. Besides, the IC50 (in the assay with HeLa; in assay [3]) was greater than 1000 µg/mL in each case.

In the case of `Cc1ncc([N+](=O)[O-])n1CCO` [METRONIDAZOLE], the MIC against Trichomonas vaginalis [1] stood at 11.7 µM (≈ 2 µg/mL); in the assay with Trichomonas vaginalis [2] it was 292 µM (≈ 50 µg/mL). Also, the Activity in the assay with Spermatozoa was less than 100%. The concentration for half-maximal inhibition (IC50) (with HeLa; in assay [3]) was greater than 1000 µg/mL each time.

Take `Cc1ncc([N+](=O)[O-])n1CCSC(=S)N1CCC(OC(=O)CN2CCOCC2)CC1`: the MIC in the assay on Trichomonas vaginalis [1] stood at 1.36 µM (≈ 0.622 µg/mL); against Trichomonas vaginalis [2], 54.7 µM (≈ 25 µg/mL). Further, the Activity in the assay with Spermatozoa is recorded as less than 100%. For the same molecule, the IC50 is 840 µg/mL (≈ 1840 µM) in the assay with HeLa and greater than 1000 µg/mL in assay [3].

In the case of `Cc1ncc([N+](=O)[O-])n1CCSC(=S)N1CCC(OC(=O)CSC(=S)N2CCCC2)CC1`, the MIC against Trichomonas vaginalis [1] is 2.41 µM (≈ 1.25 µg/mL); in the assay on Trichomonas vaginalis [2], 96.7 µM (≈ 50.1 µg/mL). Besides, in the assay on Spermatozoa, the Activity was less than 100%. Besides, the IC50 (in the assay on HeLa; in assay [3]) was greater than 1000 µg/mL throughout.

Take `Cc1ncc([N+](=O)[O-])n1CCSC(=S)N1CCC(C#N)(c2ccccc2)CC1`: the results for the MIC with Trichomonas vaginalis [1] and in the assay with Trichomonas vaginalis [2] were 1.68 µM (≈ 0.698 µg/mL) and 24.1 µM (≈ 10 µg/mL), respectively. For the same molecule, the Activity in the assay with Spermatozoa is reported as less than 100%. The IC50 (with HeLa; in assay [3]) was greater than 1000 µg/mL each time.

Consider `CCC1CCCCN1C(=S)SCCn1c([N+](=O)[O-])cnc1C` (stereo not drawn), for which the MIC against Trichomonas vaginalis [1] was 3.65 µM (≈ 1.25 µg/mL); against Trichomonas vaginalis [2] it was 14.6 µM (≈ 5 µg/mL). Besides, the Activity in the assay with Spermatozoa worked out at 100%. The figures for the IC50 (with HeLa; in assay [3]) were 94 µg/mL (≈ 274 µM) and greater than 1000 µg/mL, respectively. Further, the results for the Ratio in the assay on Trichomonas vaginalis [4] and in the assay on Trichomonas vaginalis [5] were 3 and 10, respectively.

Take `Cc1ncc([N+](=O)[O-])n1CCSC(=S)N1CCC2(CC1)OCCO2`: the MIC against Trichomonas vaginalis [1] turned out to be 1.9 µM (≈ 0.708 µg/mL); against Trichomonas vaginalis [2], 26.9 µM (≈ 10 µg/mL). For the same molecule, in the assay on Spermatozoa, the Activity is listed as less than 100%. The IC50 (in the assay with HeLa; in assay [3]) was greater than 1000 µg/mL in each case.

Take `Cc1ncc([N+](=O)[O-])n1CCSC(=S)N1CCC(C)CC1`: the values for the MIC against Trichomonas vaginalis [1] and in the assay on Trichomonas vaginalis [2] were 1.03 µM (≈ 0.338 µg/mL) and 14.3 µM (≈ 4.7 µg/mL), respectively. Besides, in the assay on Spermatozoa, the Activity stood at 100%. Moreover, the IC50 in the assay with HeLa is 190 µg/mL (≈ 578 µM); in assay [3], greater than 1000 µg/mL. The Ratio with Trichomonas vaginalis [4] stood at 10; with Trichomonas vaginalis [5] it was 20.

Regarding `Cc1ncc([N+](=O)[O-])n1CCSC(=S)N1C(C)CCCC1C` (stereo not drawn), the values for the MIC against Trichomonas vaginalis [1] and against Trichomonas vaginalis [2] were 1.83 µM (≈ 0.627 µg/mL) and 29.2 µM (≈ 10 µg/mL), respectively. In addition, the Activity in the assay with Spermatozoa came out at 100%. Besides, the IC50 with HeLa was 130 µg/mL (≈ 380 µM); in assay [3], greater than 1000 µg/mL. Moreover, the Ratio worked out at 3 in the assay with Trichomonas vaginalis [4] and 10 in the assay with Trichomonas vaginalis [5].

Regarding `Cc1ncc([N+](=O)[O-])n1CCSC(=S)N1CCC(O)CC1`, the MIC against Trichomonas vaginalis [1] was 1.41 µM (≈ 0.466 µg/mL); against Trichomonas vaginalis [2], 30.3 µM (≈ 10 µg/mL). Further, the Activity in the assay on Spermatozoa was determined as 100%. For the same molecule, the IC50 worked out at 930 µg/mL (≈ 2810 µM) with HeLa and 350 µg/mL (≈ 1060 µM) in assay [3].
